The subject of test [1] is TSPO. The following applies: low:high affinity ratio; resolved enantiomers.
Experimental: (§1) Membrane protein was prepared from human platelets obtained from 4 donor whole blood samples. […] Platelet pellets were homogenised in 10 ml buffer 1 (0.32 mM sucrose, 5 mM Tris base, 1 mM MgCl2, pH 7.4, 4° C.). The homogenates were centrifuged at 48,000×g for 15 minutes at 4° C. in a Beckman J2-MC centrifuge. The supernatant was removed and pellets were re-suspended in at least 10 ml buffer 2 (50 mM Tris base, 1 mM MgCl2, pH 7.4, 4° C.) and washed by centrifugation at 48,000×g for 15 min at 4° C. in buffer 2. Membranes were suspended in 2 ml buffer 2 and the protein concentration was determined using Protein Assay Kit II (Bio Rad cat #500-0002). Aliquots were stored at −80° C. until use.
(§2) Aliquots of membrane suspension were thawed and homogenised with assay buffer 3 (50 mM Tris base, 140 mM NaCl, 1.5 mM MgCl2, 5 mM KCl, 1.5 mM CaCl2, pH 7.4, 37° C.). […] Non-radioactive Compound 1 was diluted on a Beckman Biomek 2000 workstation at 11 serial dilutions ranging from 1 μM to 0.01 nM. GE180 and non-radioactive Compound 2 were diluted at 11 serial dilutions ranging from 100 μM to 1 nM. Total and nonspecific binding assessments were also performed. 160 μL of platelet membranes diluted to 30 μg/mL were added to the assay plate for a final volume of 200 μL/well. Assay plates were incubated at 37° C. for at least one hour with termination of incubation by filtering onto GF/B glass fibre plates (Perkin Elmer; cat #6005177) pre-soaked in 0.1% PEI in saline for 60 minutes. Assay plates were rinsed five to six times with ice cold buffer 4 (50 mM Tris Base, 1.4 mM MgCl2, pH 7.4, 4° C.) on a Perkin Elmer Filtermate 196. Plates were then dried, the bottoms sealed, and 50 μL of MicroScint 20 (Perkin Elmer cat #6013621) was added to each well. After sealing the tops, the plates were allowed to equilibrate for at least 30 minutes and the captured radioactivity was counted on a Perkin Elmer TopCount NTX. Compound 1 and Compound 2 were used as racemates.
(§3) Compound 1 and Compound 2 were resolved into enantiomers and the competitive binding assay was performed using platelets isolated from the same 4 human donor whole blood samples as described in Example 6.
The subject of test [2] is TSPO. The following applies: low:high affinity ratio; Compounds 1 and 2 used as racemates.
Experimental: as §1
(§4) Aliquots of membrane suspension were thawed and homogenised with assay buffer 3 (50 mM Tris base, 140 mM NaCl, 1.5 mM MgCl2, 5 mM KCl, 1.5 mM CaCl2, pH 7.4, 37° C.). […] Non-radioactive Compound 1 was diluted on a Beckman Biomek 2000 workstation at 11 serial dilutions ranging from 1 μM to 0.01 nM. GE180 and non-radioactive Compound 2 were diluted at 11 serial dilutions ranging from 100 μM to 1 nM. Total and nonspecific binding assessments were also performed. 160 μL of platelet membranes diluted to 30 μg/mL were added to the assay plate for a final volume of 200 μL/well. Assay plates were incubated at 37° C. for at least one hour with termination of incubation by filtering onto GF/B glass fibre plates (Perkin Elmer; cat #6005177) pre-soaked in 0.1% PEI in saline for 60 minutes. Assay plates were rinsed five to six times with ice cold buffer 4 (50 mM Tris Base, 1.4 mM MgCl2, pH 7.4, 4° C.) on a Perkin Elmer Filtermate 196. Plates were then dried, the bottoms sealed, and 50 μL of MicroScint 20 (Perkin Elmer cat #6013621) was added to each well. After sealing the tops, the plates were allowed to equilibrate for at least 30 minutes and the captured radioactivity was counted on a Perkin Elmer TopCount NTX.
In test [3] the test system is TSPO. To be noted: in vitro; LABs versus HABs; cited from earlier work.
The target of test [4] is T1, TSPO (Homo sapiens, UniProt P30536, T147A). Put plainly: biochemical.
Experimental: as §1, §2, §3
Test [5] addresses T2, TSPO (Homo sapiens, UniProt P30536). Put plainly: biochemical.
Experimental: as §1, §2, §3
Test [6] has as its system TSPO. The following applies: versus [11C]PBR28; cited from earlier work.
In test [7] the target is T1, TSPO. Briefly: biochemical. The source holds these as a separate data set.
Experimental: as §1, §4
Test [8] deals with T2, TSPO. Put plainly: biochemical. This is another data set of the same source.
Experimental: as §1, §4

Data on eleven compounds can be found in patent US9951011B2, “Carbazole compounds for in vivo imaging” (priority 2013, dated 2018).

SMILES strings stand for the structures. Where two headings read alike, the source gives them in different places.

T1 sequence (P30536 2-169 T147A): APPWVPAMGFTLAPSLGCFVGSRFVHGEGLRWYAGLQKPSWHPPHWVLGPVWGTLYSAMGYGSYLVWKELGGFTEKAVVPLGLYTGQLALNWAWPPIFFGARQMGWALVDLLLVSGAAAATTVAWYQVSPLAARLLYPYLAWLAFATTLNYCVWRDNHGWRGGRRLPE
T2 sequence (P30536 2-169): as the sequence (P30536 2-169 T147A) above, with A146T counted along it

Turning to `CCN(CC)C(=O)[C@H]1CCCc2c1c1c(OC)cccc1n2CCF` (stereo in doubt) [GE180, 9-(2-Fluoro-ethyl)-5-methoxy-2,3,4,9-tetrahydro-1H-carbazole-4-carboxylic acid diethylamide, reference compound], the “Low:High” value with TSPO [1] worked out at 3; with TSPO [2], 15.44.
Turning to `CCC(C)N(C)C(=O)c1cc2ccccc2c(-c2ccccc2Cl)n1` (stereo not drawn) [PK11195, reference compound], in the test on TSPO [1], the “Low:High” value came to 1.
On to `COc1ccccc1CN(C(C)=O)c1cnccc1Oc1ccccc1` [[3H]PBR28], for which the “lower TSPO affinity in LABs than in HABs” value in the test with TSPO [3] was “more than 10 fold”.
In general, Ki refers to a measure of affinity in units of concentration, obtained from inhibition or displacement. On to `CCN(Cc1ccccc1)C(=O)[C@H]1CCCc2c1c1ccccc1n2CCF` [Compound 1 E1, (S)—N-benzyl-N-ethyl-9-(2-fluoroethyl)-2,3,4,9-tetrahydro-1H-carbazole-4-carboxamide], for which the “Low:High” value in the test on TSPO [1] is given as 1. The Ki at TSPO [4] stood at 4 nM; at TSPO [5], 5 nM.
The like results for `CC(C)N(C)C(=O)[C@@H]1CCCc2c1c1ccccc1n2CCF` [Compound 2 E2] were, in that order, 5, 83 nM and 402 nM.
Turning to `CCC(C)N(C)C(=O)c1cc2ccccc2c(-c2ccccc2Cl)n1` (stereo not drawn) [[11C]PK11195], the “in vivo specific binding in monkey brain, lower than that reported for [11C]PBR28” value in the test with TSPO [6] was around 80 fold.
On to `COc1ccccc1CN(C(C)=O)c1cnccc1Oc1ccccc1` [PBR28, N-(2-methoxybenzyl)-N-(4-phenoxypyridin-3-yl)acetamide, reference compound], for which the “Low:High” value in the test with TSPO [1] is 28.
For `CC(C)N(C)C(=O)[C@H]1CCCc2c1c1ccccc1n2CCF` [Compound 2 E1, (S)—N-isopropyl-N-methyl-9-(2-fluoroethyl)-2,3,4,9-tetrahydro-1H-carbazole-4-carboxamide], in the test on TSPO [1], the “Low:High” value worked out at 1. Also, the figures for the Ki on TSPO [4] and at TSPO [5] were 24 nM and 23 nM, respectively.
As for `CCN(Cc1ccccc1)C(=O)[C@H]1CCCc2c1c1ccccc1n2CCF` (racemic) [Compound 1, (S)—N-benzyl-N-ethyl-9-(2-fluoroethyl)-2,3,4,9-tetrahydro-1H-carbazole-4-carboxamide], the Ki on TSPO [7] is 1.85 nM; at TSPO [8], 5.98 nM. In the test with TSPO [2], the “Low:High” value was 3.24.
Regarding `CCN(Cc1ccccc1)C(=O)[C@@H]1CCCc2c1c1ccccc1n2CCF` [Compound 1 E2], the “Low:High” value in the test on TSPO [1] amounted to 32. Besides, the inhibition constant Ki on TSPO [4] was 4 nM; on TSPO [5], 125 nM.
`CC(C)N(C)C(=O)[C@H]1CCCc2c1c1ccccc1n2CCF` (racemic) [Compound 2, (S)—N-isopropyl-N-methyl-9-(2-fluoroethyl)-2,3,4,9-tetrahydro-1H-carbazole-4-carboxamide]: the figures for the inhibition constant Ki on TSPO [7] and at TSPO [8] were 43.8 nM and 44.9 nM, respectively. Besides, in the test with TSPO [2], the “Low:High” value turned out to be 1.02.
